What all share (assay type): cell-based
In one data set the test system is S. carnosus. The data set can be described thus: Antimicrobial activity (clear zones on plates) against S. carnosus. To be noted: thrombin and hNisP, 4 h and 20 h cleavage. On the procedure:
(§1) For initial antimicrobial efficacy testing, both GFP-fused and non-GFP-fused pLanthipeptides were loaded (GFP-pNisin and GFP-pPep5) and cleaved directly in wells with trypsin (5 μg/mL for GFPpNisin) or thrombin (3 U/100 μL for GFP-pPep5). Antimicrobial activity was evaluated against Lactobacillus sakei for nisin and against S. carnosus for GFP-pPep5. Plates were incubated at 30° C. overnight until visible clear zones were observed. Lactobacillus sakei was cultured in MRS broth or agar and S. carnosus was cultured in Mueller Hinton Broth or agar.
(§2) GFP-pLanthipeptides were cleaved at 37° C. for 4 h and 20 h, with thrombin or hNisP. Heterologously expressed hNisP was added to concentrations of 0.01 ng/μL, 5 ng/μL, 10 ng/μL, 50 ng/μL and 70 ng/μL. Thrombin was added at 0.75 U, 4.5 U, 3 U and 6 U. Cleavage reactions were performed in 100 μL reactions and protein concentrations of GFP-pLanthipeptides were adjusted to final concentrations of 1 mg/ml with the exception of GFP-pPep5Th which was adjusted to 0.9 mg/mL. Cleavage reactions were stopped by the addition of protease inhibitors. Antimicrobial activity was evaluated against Lb. sakei and S. carnosus for GFP-pNisin (30 μL) and GFP-pPep5 (80 μL), respectively. Plates were incubated at 30° C. overnight until visible clear zones were observed. Samples were separated using SDS-PAGE.

The next data set concerns Lactobacillus sakei. Briefly: Antimicrobial activity (clear zones on plates) against Lactobacillus sakei. On the procedure:
as §1, §2

Data set [1] has as its system Listeria monocytogenes EDG-e. The data set can be described thus: Antilisterial activity, spot plate and SDS-PAGE agar overlay. How it is done: While the respective bacteriocins were fused to GFP and produced a fluorescent complex, it was important to determine that antimicrobial activity was due to the liberated bacteriocin. Antimicrobial activity of plantaricin 423 and mundticin ST4SA was assessed against Listeria monocytogenes EDG-e grown on Brain Heart Infusion media (BHI) containing […] chloramphenicol. The spot plate method was performed on solid medium (1% w/v agar) seeded with Listeria monocytogenes EDG-e. SDS-PAGE separations were assayed for activity by casting the polyacrylamide gel in an agar bilayer seeded with Listeria monocytogenes EDG-e. Before casting, the poly acrylamide gels were fixed for 20 min in a 25% isopropanol, 10% acetic acid fixing solution and then rinsed 3×15 min with sterile ultra-pure water.
Cleavage parameters were optimized using a modified method from that supplied by the manufacturer. The WELQut-to-Sample ratios were set to 1:100, 1:50, 1:25, 1:5 (v/v) for 50 μL samples of GFP-PlaX and GFP-MunX, respectively, and diluted to a final volume of 250 μL in WELQut cut buffer. The approximate corresponding units of WELQ to 466.5 μg of GFP-PlaX was 2.5 U, 5 U, 10 U and 50 U respectively. The approximate corresponding units of WELQ to 547.5 μg of GFP-MunX was 2.5 U, 5 U, 10 U and 50 U respectively. Cleavage reactions were incubated at 28° C., and 50 μL samples were collected at 2 h, 4 h, 8 h, and 16 h, respectively. Cleavage was assessed by the spot plate method using BHI solid medium (1% w/v agar) seeded with Listeria monocytogenes EGD-e.
Mundticin ST4SA and plantaricin 423 were cleaved from one millilitre of His-tag purified GFP-MunX and GFP-PlaX, respectively, under optimal cleavage conditions. Cleavage reactions were purified using high performance liquid chromatography (HPLC), single peaks were spot tested for antilisterial activity.

In the next data set the test system is Erythrocyte. Briefly: Erythrocyte lysis (haemolysis) assay. Particulars: fusion not cleaved. An excerpt:
FIG. 18: Top Panel-SDS-PAGE of purified GFP-LLO and LLO used in erythrocyte lysis assay. Left: Stained gel. Right: Fluorescent image of GFP-LLO and GFP, L: Ladder (NEB ladder #P7712), 1: Uncut GFP-LLO, 2: Cleaved, IMAS purified and desalted LLO. A: GFP-LLO, B: LLO. Bottom Panel-Erythrocyte haemolysis following GFP-LLO exposure at varying pH. Relative haemoglobin absorbance was collected at 540 nm, values expressed as percentage of positive control, mean±SEM (n=3), Analysis via t-test concluded *=p<0.001, ***=p<0.0001 vs Untreated.

Where [2] appears, read: after cleavage / liberation of the core peptide, expression at 26° C.

Where no end group is shown, it is not given here.

Regarding “Pep5: lanthipeptide liberated from GFP-pPep5 by thrombin or hNisP (TAGPAIRASVKQCQKTLKATRLFTVSCKGKNGCK; also: lanthipeptide (lantibiotic) thioether rings, not placed; UniProt P19578 27-60, looked up)”, in the data set with S. carnosus, the “Effect on antimicrobial activity of increasing concentration and cleavage time” value is “detrimental effect”.

Regarding “GFP-pNisin: N-terminal His tagged GFP with WELQut site fused to precursor nisin (SEQ ID NO:28/30)”, the Antimicrobial activity result with Lactobacillus sakei (setting [2]) is given as “highest activity”; in the data set with Lactobacillus sakei (after cleavage with trypsin, expression at a range of temperatures, induction times and IPTG concentrations), “activity was detected”; in the data set with Lactobacillus sakei (uncleaved sample) it was “absent”.

In the case of “GFP-MunX: GFP fused to mature mundticin ST4SA with WELQut cleavage site (SEQ ID NO:32)”, the “Antilisterial activity at the band location” value in data set [1] (SDS-PAGE gel overlay after WELQut cleavage, zone at the size/location of the named species) is listed as “zones of antilisterial activity”. Further, the Antilisterial activity result in data set [1] (WELQut cleaved samples, SDS-PAGE gel overlay) is listed as “clear zones”; in data set [1] (uncleaved fusion protein, spot plate), “did not show antilisterial activity”. Also, in data set [1] (cleaved fusion protein, compared with the other GFP-bacteriocin), the Specific activity entry is recorded as “higher specific activity”.

Consider GFP-LLO, for which the “Activity of LLO while fused to fluorescent partner” value in the data set with Erythrocyte is recorded as “still has activity”.

Consider “HispNisin: His-tagged precursor nisin, no fluorescent fusion (MSTKDFNLDLVSVSKKDSGASPRITSISLCTPGCKTGALMGCNMKTATCHCSIHVSK; cysteine pairing not given here; also: His tag, not shown in chain; UniProt P13068 1-57, looked up)”, for which the Antimicrobial activity entry is “decrease” with Lactobacillus sakei (setting [2]); “highest activity” in the data set with Lactobacillus sakei (after cleavage with trypsin, expression at 18° C., soluble and insoluble fractions); “substantial loss in activity” with Lactobacillus sakei (after cleavage with trypsin, expression at 37° C.).

For the origin of these results see US12173344B2, “Fluorescent fusion based heterologous peptide production” (Stellenbosch University, priority 2020, dated 2024).
